How the values were obtained:
[1] = molecular target: Cholinesterase (Homo sapiens, UniProt P06276)
Description: Anticholinesterase activity against human plasma BChE

[2] = molecular target: Acetylcholinesterase (Homo sapiens, UniProt P22303)
Sequence of Acetylcholinesterase (P22303 whole entry): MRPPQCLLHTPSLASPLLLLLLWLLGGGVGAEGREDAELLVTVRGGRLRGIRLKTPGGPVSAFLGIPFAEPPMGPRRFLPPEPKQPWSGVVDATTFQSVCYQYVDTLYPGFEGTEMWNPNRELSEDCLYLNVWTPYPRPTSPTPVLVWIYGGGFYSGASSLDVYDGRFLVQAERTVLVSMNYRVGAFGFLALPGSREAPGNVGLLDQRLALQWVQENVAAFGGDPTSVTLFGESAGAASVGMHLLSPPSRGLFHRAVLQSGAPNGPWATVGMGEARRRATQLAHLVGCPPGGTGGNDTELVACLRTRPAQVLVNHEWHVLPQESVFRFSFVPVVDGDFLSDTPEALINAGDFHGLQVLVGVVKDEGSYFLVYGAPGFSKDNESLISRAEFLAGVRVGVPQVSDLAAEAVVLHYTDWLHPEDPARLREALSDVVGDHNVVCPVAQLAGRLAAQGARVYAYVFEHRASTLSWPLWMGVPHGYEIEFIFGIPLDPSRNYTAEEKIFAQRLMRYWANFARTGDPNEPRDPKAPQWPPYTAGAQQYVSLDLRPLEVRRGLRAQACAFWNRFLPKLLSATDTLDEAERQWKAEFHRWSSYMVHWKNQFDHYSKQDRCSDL
Description: Anticholinesterase activity against human erythrocyte AChE

Sequence of Cholinesterase (P06276 whole entry): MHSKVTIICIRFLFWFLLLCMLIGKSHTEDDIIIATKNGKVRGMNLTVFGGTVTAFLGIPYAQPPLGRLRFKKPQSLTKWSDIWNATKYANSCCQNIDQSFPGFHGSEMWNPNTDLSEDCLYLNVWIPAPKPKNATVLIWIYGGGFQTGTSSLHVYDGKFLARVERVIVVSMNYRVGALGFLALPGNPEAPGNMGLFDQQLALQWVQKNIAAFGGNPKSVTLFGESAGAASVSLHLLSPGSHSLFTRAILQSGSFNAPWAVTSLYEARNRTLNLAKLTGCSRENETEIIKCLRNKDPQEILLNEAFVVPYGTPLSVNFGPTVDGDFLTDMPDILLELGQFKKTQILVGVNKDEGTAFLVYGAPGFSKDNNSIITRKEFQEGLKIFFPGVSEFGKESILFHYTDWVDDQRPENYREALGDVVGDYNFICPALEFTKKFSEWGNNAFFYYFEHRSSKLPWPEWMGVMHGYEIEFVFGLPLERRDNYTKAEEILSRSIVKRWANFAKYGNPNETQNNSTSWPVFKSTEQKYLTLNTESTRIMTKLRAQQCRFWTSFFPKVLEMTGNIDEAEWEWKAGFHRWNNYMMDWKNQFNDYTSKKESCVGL

| SMILES | IC50 [1] [nM] | IC50 [2] [nM] |
| --- | --- | --- |
| CC(C)c1ccc(NC(=O)Oc2ccc3c(c2)[C@@]2(C)CO[C@H](C2)O3)cc1 | 15 |  |
| CCNC(=O)Oc1ccc2c(c1)[C@]1(C)CCO[C@@H]1O2 | 3 | 100 |
| CNC(=O)Oc1ccc2c(c1)[C@]1(C)CCO[C@@H]1N2C | 4 |  |
| CC(C)c1ccc(NC(=O)Oc2ccc3c(c2)[C@]2(C)CO[C@@H](C2)O3)cc1 | 54 | 3430 |
| Cc1ccccc1NC(=O)Oc1ccc2c(c1)[C@@]1(C)CCO[C@H]1N2C | 5100 | 142 |
| CCNC(=O)Oc1ccc2c(c1)[C@]1(C)CCN(C)[C@@H]1N2C | 4 | 94 |
| CC(C)c1ccc(NC(=O)Oc2ccc3c(c2)[C@@]2(C)CCO[C@H]2N3C)cc1 | 23 |  |
| CNC(=O)Oc1ccc2c(c1)[C@@]1(C)CCO[C@H]1N2C | 56 | 56 |
| CCNC(=O)Oc1ccc2c(c1)[C@]1(C)CO[C@@H](C1)O2 | 120 | 2420 |
| Cc1ccccc1NC(=O)Oc1ccc2c(c1)[C@@]1(C)CCO[C@H]1O2 | 36400 |  |
| CC(C)c1ccc(NC(=O)Oc2ccc3c(c2)[C@@]2(C)CCO[C@H]2O3)cc1 | 40 |  |
| CC(C)c1ccc(NC(=O)Oc2ccc3c(c2)[C@]2(C)CCO[C@@H]2O3)cc1 | 13 |  |
| Cc1ccccc1NC(=O)Oc1ccc2c(c1)[C@]1(C)CO[C@@H](C1)O2 |  | 97 |
| CCNC(=O)Oc1ccc2c(c1)[C@@]1(C)CCO[C@H]1O2 | 28 | 486 |
| Cc1ccccc1NC(=O)Oc1ccc2c(c1)[C@@]1(C)CO[C@H](C1)O2 | 52000 | 38 |
| CCNC(=O)Oc1ccc2c(c1)[C@@]1(C)CO[C@H](C1)O2 | 23 | 610 |
| Cc1ccccc1NC(=O)Oc1ccc2c(c1)[C@@]1(C)CCN(C)[C@H]1N2C |  | 5510 |
| CCNC(=O)Oc1ccc2c(c1)[C@]1(C)CCO[C@@H]1N2C | 2 | 82 |
| CC(C)c1ccc(NC(=O)Oc2ccc3c(c2)[C@]2(C)CCO[C@@H]2N3C)cc1 | 17 | 3860 |
| Cc1ccccc1NC(=O)Oc1ccc2c(c1)[C@]1(C)CCO[C@@H]1O2 | 11400 |  |
